We go through two compounds from patent US4973578A, “Synthetic peptides derived from the alpha-subunit of human lycoprotein hormones” (Mayo Foundation for Medical Education and Research, priority 1988, dated 1990).

SMILES strings stand for the structures. Several values for one entry are separate records, joined by “and”; a condition that tells them apart may be missing. Identical values can stand only once. Entries after “also recorded” stand apart in the source; their conditions may differ. Residues, ends and D or L forms follow the SMILES beside them.

The nature of series [1]: Solubility of peptide in assay buffers. It is filed as physicochemical.
Series [2] concerns TSH mediated cAMP generation in FRTL-5 cells. The series is described as follows: Inhibition of TSH mediated cAMP generation in FRTL-5 cells. It is filed as cell-based, rat. The conditions noted are these: for percent inhibition of TSH mediated cAMP generation: 200 mU/L bTSH, 2 hrs 37° C. The method, then:
FRTL-5 cells were maintained in Ham's F-12 medium supplemented with 5% calf serum and a 6 hormone preparation including 10 mU/ml bTSH as described by Ambesi-Impiombato et al., Proc. Natl. Acad. Sci. U.S.A., 77:3455 (1980), the disclosure of which is incorporated herein. For all assays herein described, the cells were plated in 24 well plates and grown for 3 days at 37° C. then maintained for 5-7 days in medium supplemented with 10 ug insulin alone prior to assay.
The bioassay was a modification of those previously described by Bidey et al, J. Endocrinol., 101:269 (1984); and Kasagi et al., ACTA Endocrinol., 115:30 (1987). To duplicate culture wells were added varying concentrations of test materials (see below) in a final volume of 300 ul of NaCl free HBSS with 0.5 mM iso-butyl-methyl-xanthine (IBMX, Sigma, St. Louis). In stimulation assays, only synthetic α-subunit peptides were added to the incubation medium. For inhibition assays, the noted concentrations of synthetic α-subunit peptides were added immediately prior to the addition of 200 mU/L bTSH. The plates were incubated at 37° C. in 5% CO2 for 2 hrs then 100 ul of incubation medium was removed and diluted in 900 ul of 0.05M sodium acetate pH 6.2 and assayed for cAMP content by RIA in accordance with procedures described by Wray and Glinos, Am. J. Physiol., 234 (Cell Phisol. 3):C131(1978)); and Steiner et al., J. Biol. Chem., 247:1106 (1972). […] Basal cAMP levels were determined in the presence of HBSS and IBMX alone. In inhibition assays percent inhibition was calculated as follows: [formula]
FIG. 4 reports data obtained for TSH deprived FRTL-5 cells incubated with a fixed amount of bTSH (200 mU/l) by itself or with various concentrations of synthetic peptides. cAMP content of medium was measured after 2 hrs. incubation at 37° C. Percent inhibition of cAMP generation was calculated as noted above.

Series [3] has as its target T1, TSH receptor on human thyroid membranes (Homo sapiens, UniProt P16473).
T1 construct: Thyroid tissue obtained at surgery from patients with Graves' disease was prepared as described by Takahashi et al; from tissue; host or cells: human thyroid tissue from Graves' disease patients, 2000xg membrane fraction
Kind of series: TSH radioreceptor assay: inhibition of 125I-bTSH binding to human thyroid membrane preparations. To be noted: for IC50: human thyroid membrane homogenates, ± S.E., read-out: bTSH ED50 (effective dose necessary to inhibit binding of 125I-bTSH by 50%); for inhibition of 125I-bTSH binding, result in words: human thyroid membranes. The method, then:
Thyroid tissue obtained at surgery from patients with Graves' disease was prepared as described by Takahashi et al., J. Clin. Endocrinol. Metab. 47:870 (1978), the disclosure of which is incorporated herein. Briefly, the tissue was dissected free of fibrous material, minced with scissors, and homogenized with Polytron homogenizer. The 2000×g fraction was collected by centrifugation, washed and resuspended in 40 mM Tris, 0.1% Bovine Serum Albumin (BSA) pH 7.4 at a concentration of 100 mg equivalents of wet tissue per milliliter. The preparation was stored at -70° C. until used for assay.
Highly purified bovine TSH (30 IU/mg, supplied by Dr. J. G. Pierce, UCLA) was radio-iodinated (Na^125 I, Amersham, Chicago) by a gentle lactoperoxidase procedure described by Takahashi et al., supra, then purified by Sephadex G-100 chromatography.
The membrane assay incubation mixture consisted of […] of the 2000×g membrane fraction, 0.125 ng ^125 I bTSH (approximately 20,000 cpm, 5×10^-12 M), 100 ul of 1% Triton X-100 and noted amounts of test materials in a final volume of 0.5 ml of 40 mM Tris-HCl pH 7.4 plus 0.1% BSA. Nonspecific binding was determined by addition of excess unlabeled bTSH (200 mU/ml, Sigma, St. Louis). After 2 hrs incubation at 25° C., 200 ul of 5 mg/ml bovine gamma globulin and 1 ml 30% polyethylene glycol 6000 (Baker, Phillipsburg, N.J.) in 1M NaCl was added to each tube and the tubes centrifuged at 4000 rpm for 25 minutes. The supernatants were aspirated and pellets counted in a gamma counter. Specific binding averaged 25% of total counts.
FIG. 1 reports 5×10^-12 M labeled bTSH incubated with 10 mg equivalents (wet weight) of 2000×g fraction of thyroid membranes with varying concentrations of unlabeled TSH or synthetic α-subunit peptides. Nonspecific binding was determined in the presence of excess unlabeled TSH.

Series [4] relates to thyroid stimulating immunoglobulin (TSI) stimulated cAMP in FRTL-5 cells. Kind of series: TSI bioassay: inhibition of thyroid stimulating immunoglobulin activity (PEG-precipitated patient immunoglobulin) in FRTL-5 cells. It is filed as cell-based, rat. To be noted: for Percent inhibition of TSI activity, mean: mean of patient samples tested. An excerpt:
Ten patients (8 women and 2 men) with Graves' disease and high levels of TSI were identified after evaluation by FRTL-5 cell bioassay in the clinical chemistry laboratory. (FRTL-5 bioassay described below employing known TSH receptor recognition of various species hormones) Consecutive samples that had indices greater than 15 and sufficient serum remaining for further evaluation were chosen. Seven of the 10 had serum thyroxine values above the normal range and 9 of 10 had TSH levels below the euthyroid range by sensitive immunoradiometric assay [Boots-Celltech Sucrosep, Berkshire, UK, conducted as described in Klee and Hay, J. Clin. Endocrinol. Metab., 64:461 (1987)]. (FIG. 5). For comparison serum from 13 normal subjects was examined for TSI at the same serum dilution as the patient sera. (FIG. 5).
FRTL-5 cells were maintained in Ham's F-12 medium supplemented with 5% calf serum and a 6-hormone preparation (6H) as described by Ambesi-Impiombato, supra. The cells were removed from flasks enzymatically, plated at 150,000 cells per well in 24 well plates, and grown in 6H medium for 4 days. The medium was then replaced with fresh medium supplemented with insulin only (1H) for 7 days prior to assay. The bioassay was a modification of that described by Kasagi et al., supra. Briefly, immunoglobulins were precipitated from 2 ml of serum with 6 ml 20% polyethylene glycol 6000 (Baker, Phillipsburg, N.J.), centrifuged at 2800×g for 20 minutes, and then reconstituted in 2.4 ml buffer (NaCl-free Hanks balanced salt solution, NaCl-free HBSS), containing 1 mM iso-butyl-methyl-xanthine (IBMX, Sigma, St. Louis) and 1.5% BSA. After washing the cells with HBSS, 150 ul of buffer was added to the wells plus varying concentrations of synthetic α-subunit peptides followed immediately by 150 ul of the crude immunoglobulin extract. The plates were incubated for 2 hours at 37° C., 5% CO2 after which 100 ul of medium was removed and diluted in 900 ul 50 mM sodium acetate buffer, pH 6.2. cAMP content was determined by radioimmunoassay using the procedures described in Wray and Glinos, supra and Steiner et al., supra. Basal cAMP levels were determined in the absence of immunoglobulin extract and synthetic peptides for each plate. Basal and maximum levels were determined in quadruplicate; peptide effects were measured in duplicate at each concentration.
Percent increase in cAMP levels over basal was calculated as below: [formula]
Percent inhibition of TSI activity by the synthetic α-subunit peptides was calculated as follows: [formula]
cAMP levels in the presence of synthetic peptides were compared to maximum levels using student's T test for paired samples. Mean percent inhibition between different peptides were compared with student's T test for independent samples. Correlations were determined by Pearson's R.

T1 sequence (P16473 21-764): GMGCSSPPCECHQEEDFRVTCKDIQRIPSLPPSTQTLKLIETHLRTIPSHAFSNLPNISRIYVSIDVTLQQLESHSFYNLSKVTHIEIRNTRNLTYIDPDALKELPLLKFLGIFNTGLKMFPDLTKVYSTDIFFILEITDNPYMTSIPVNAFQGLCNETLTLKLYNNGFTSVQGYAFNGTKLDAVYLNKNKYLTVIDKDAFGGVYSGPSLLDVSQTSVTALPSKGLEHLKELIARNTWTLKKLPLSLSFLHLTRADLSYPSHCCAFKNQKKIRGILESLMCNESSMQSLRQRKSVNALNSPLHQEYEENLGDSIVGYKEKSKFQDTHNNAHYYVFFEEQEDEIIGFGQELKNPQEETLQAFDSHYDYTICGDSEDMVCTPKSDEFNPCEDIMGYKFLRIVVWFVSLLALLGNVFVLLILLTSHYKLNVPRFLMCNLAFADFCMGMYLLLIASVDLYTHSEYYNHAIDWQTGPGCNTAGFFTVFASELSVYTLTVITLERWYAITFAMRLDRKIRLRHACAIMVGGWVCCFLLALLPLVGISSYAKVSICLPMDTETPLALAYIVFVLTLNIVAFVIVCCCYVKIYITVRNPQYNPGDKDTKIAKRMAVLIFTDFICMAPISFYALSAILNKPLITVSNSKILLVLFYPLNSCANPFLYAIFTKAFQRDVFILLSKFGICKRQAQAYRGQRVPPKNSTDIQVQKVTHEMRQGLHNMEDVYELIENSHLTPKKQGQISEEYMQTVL

As to `CC[C@H](C)[C@H](NC(=O)[C@@H]1CCCN1C(=O)[C@H](C)NC(=O)CNC(=O)[C@@H]1CCCN1)C(=O)N[C@@H](CC(C)C)C(=O)N[C@@H](CCC(N)=O)C(=O)N[C@@H](CS)C(=O)N[C@@H](CCSC)C(=O)NCC(=O)N[C@@H](CS)C(=O)N[C@@H](CS)C(=O)N[C@@H](Cc1ccccc1)C(=O)N[C@@H](CO)C(=O)N[C@@H](CCCNC(=N)N)C(N)=O` [α21-35, Pro--Gly--Ala--Pro--Ile--Leu--Gln--Cys--Met--Gly--Cys--Cys--Phe--Ser--Arg] (H-PGAPILQCMGCCFSR-NH2), the “behaviour in cell binding assay buffer” value in series [1] (FRTL-5 cell binding assay buffer) was “precipitated in the assay buffer”. The “behaviour in soluble membrane assay” value in series [1] (soluble membrane assay (FIG. 1)) is given as “remained in solution”. Further, the “percent inhibition of TSH mediated cAMP generation” value in series [2] (peptide 66.7 ug/ml) is 33.88%; in series [2] (peptide 133.3 ug/ml) it was 52.50%. Further, in series [3] (at concentrations greater than 1×10^-5 m, FIG. 1), the “displacement of 125I-bTSH label” value is on record as “more than 80%”. Further, the IC50 in series [3] turned out to be 39.9 ± 0.4 µM. In series [3] (FIG. 1), the “inhibition of 125I-bTSH binding, result in words” value was “dose dependent inhibition”.
For the compound `C[C@H](N)C(=O)N[C@@H](CS)C(=O)N[C@@H](Cc1c[nH]cn1)C(=O)N[C@@H](CS)C(=O)N[C@@H](CO)C(=O)N[C@H](C(=O)N[C@@H](CS)C(=O)N[C@@H](Cc1ccc(O)cc1)C(=O)N[C@@H](Cc1ccc(O)cc1)C(=O)N[C@@H](Cc1c[nH]cn1)C(=O)N[C@@H](CCCCN)C(=O)N[C@@H](CO)C(=O)O)[C@@H](C)O` [α81-92, Ala--Cys--His--Cys--Ser--Thr--Cys--Tyr--Tyr--His--Lys--Ser(OH)] (H-ACHCSTCYYHKS-OH), the “inhibition of cAMP generated by patient immunoglobulin, in words” value in series [4] (FIG. 7 and Table 6) is “did not significantly inhibit”. For the same compound, the “Percent inhibition of TSI activity” value in series [4] (Pt. sample D, peptide 66.7 ug/ml) is listed as -18.5%; in series [4] (Pt. sample D, peptide 133 ug/ml), -7.8%; in series [4] (Pt. sample E, peptide 66.7 ug/ml) it was 29.7%; in series [4] (Pt. sample E, peptide 133 ug/ml), 33.6%; in series [4] (Pt. sample F, peptide 66.7 ug/ml) it was 9.6%; in series [4] (Pt. sample F, peptide 133 ug/ml), -5.1%. Also, the “Percent inhibition of TSI activity” value is on record as 19.0% in series [4] (Pt. sample G, peptide 66.7 ug/ml); 14.5% in series [4] (Pt. sample G, peptide 133 ug/ml); 0.6% in series [4] (Pt. sample H, peptide 66.7 ug/ml); -11.4% in series [4] (Pt. sample H, peptide 133 ug/ml); -13.3% in series [4] (Pt. sample I, peptide 66.7 ug/ml); -17.0% in series [4] (Pt. sample I, peptide 133 ug/ml). Also, the “Percent inhibition of TSI activity” value is listed as -2.0% in series [4] (Pt. sample J, peptide 66.7 ug/ml) and -7.7% in series [4] (Pt. sample J, peptide 133 ug/ml). In addition, the “Percent inhibition of TSI activity, mean” value was 3.6% in series [4] (peptide 66.7 ug/ml); -0.1±6.2% and -0.1% in series [4] (peptide 133 ug/ml). Also, the “patient Ig samples with statistically significant inhibition of cAMP” value in series [4] (peptide 133 ug/ml) is given as “none of the 7”. The “percent inhibition of TSH mediated cAMP generation” value in series [2] (peptide 66.7 ug/ml) came to 18.03%; in series [2] (peptide 133.3 ug/ml), 20.83%. Moreover, the “inhibition of TSH mediated cAMP generation, in words” value in series [2] (same concentrations as the active peptides) is listed as “did not significantly inhibit TSH stimulation of cAMP production; also recorded: little or no ability to inhibit TSH mediated cAMP generation”. In addition, in series [3], the IC50 stood at 175 ± 3.8 µM. In addition, the “inhibition of 125I-bTSH binding, result in words” value in series [3] (FIG. 1) is reported as “dose dependent inhibition; also recorded: considerably less potent”.
